In US8017786B2, “Substituted β-phenyl-α-hydroxy-propanoic acid, synthesis method and use thereof” (Northwest University, priority 2006, dated 2011):

Key:
[1] = test system: rats with middle cerebral artery occlusion; assay: Cerebral microcirculatory blood flow in rats with middle cerebral artery occlusion; assay type: in vivo, rat
Description: 60 SD rats with a body weight of 220±20 g were randomly divided into normal control group, model control group, salvianic acid injection group (ip. 1 mL/kg), and group of bornyl β-(3,4-dihydroxylphenyl)-α-hydroxylpropionate ester at a small, middle and large dose respectively (ip. 5, 15, and 35 mg/kg). The rats of normal group and model group were administered with equal-volume of physiologic saline by ip. The rats were anesthetized by intraperitoneal injection of 1% pentobarbital sodium at an amount of 40 mg/kg, then placed at supine position, head fixed, and cut skin along cervical middle line. Trachea cannula, was inserted into the rats and they were allowed to spontaneous respire. Right common jugular vein and common carotid artery were isolated and a suture was introduced for later use. Animals were fixed on a rat stereotaxic apparatus, a cranial window with a size of 6×8 mm was opened at the right temple with a dental drill, after hemostasis, cerebral dura mater was cut open with scissors to expose cerebral pia mater. The window was covered and sealed with glass and dental cement, and the laser probe of a laser-doppler microcirculatory blood flow meter was fixed on the cranial window. Then the animals were fixed at lateral position, the right common carotid artery was lifted, ligated at the proximal part and carefully cut with scissors, a nylon suture having a diameter of about 0.3 mm was introduced into the artery. The distance between the artery cut and the paropia of the rats was marked before the suture was introduced. […] When the suture arrived at middle cerebral artery, an abrupt decrease of the microcirculatory blood flow would be observed. After the observation of a decrease in the microcirculatory blood flow, the suture was further penetrated by about 1 mm, and the distal end of the cut and the suture in the artery were ligated securely. Spare suture was cut-off. After the end of the test, it was checked whether the nylon suture blocked the initiation site of the middle cerebral artery, and the data of any animal whose artery was not blocked were cancelled. The animals of the control group were not treated. After the cranial window was prepared, the probe of J I2200 type laser-doppler microcirculatory blood flow meter was fixed at the cranial window, and the probe was maintained without displacement and rotation during the whole test. The microcirculatory blood flows before ligation and 5, 15, 30, 45 and 60 min after ligation were recorded, and the data of the animals in the drug-treatment groups were recorded at the same time points. The mean microcirculatory blood flow observed within 1 min at each time point was designated as the microcirculatory blood flow of the respective time point.

[2] = test system: rats with cardiac ischemia reperfusion (I/R) injury; assay: Myocardial infarction areas caused by cardiac muscle I/R; assay type: in vivo, rat; conditions: for aar/lv / nec/aar / nec/lv: 5 days, ischemia 30 min, reperfusion 30 min
Description: 52 SD rats having a body weight of 220±20 g were randomly divided into model control group, salviannic acid injection group (in 1 mL/kg), and group of bornyl β-(3,4-dihydroxylphenyl)-α-hydroxylpropionate ester at a small, middle and large dose (ip 5, 15, 35 mg/kg). The rats of the normal group and the model control group were ip administered with equal-volume of physiologic saline. The rats of all groups were administered for consecutive 5 days. When the rats were administered for the last time, they were simultaneously anesthetized with 1.5% pentobarbital sodium (ip 45 mg/kg), then a catheter was inserted into the right carotid artery, and connected via a transducer to an eight-channeled physiological recorder. Tracheal cannula was performed, and the ventilation rate was maintained at 60 times/min. The chest was opened, a 6/0 suture was used to form a loop at a site 1˜2 mm from the root of the anterior descending coronary artery, and a plastic pipe was introduced through the loop, then the loop was tightened up. The change of electrocardiogram was observed. An increase or decrease of ST indicated the success of ligation. The color of the myocardial tissue below the ligation suture became darker. 30 minutes later, the plastic pipe was pulled out to allow coronary artery blood flowing again and cause hyperemia of local tissue during reperfusion. For the groups subjected to ischemia for 30 min and reperfusion for 30 min, the myocardial infarction areas were recorded before the test, after ischemia for 1 min and 30 min, and after reperfusion for 30 min; for the groups subjected to ischemia for 30 min and reperfusion for 2 h, cardiac tissue samples were taken and fixed using 10% formalin, embedded with paraffin, serially sliced into sections with a thickness of 4 μm, and separately subjected to immunohistochemistry tests; the rats of the sham operation group were subjected only to the introduction of suture but their coronary arteries were not ligated.
After the rats were subjected to ischemia and reperfusion for 30 minutes, their anterior descending coronaries were ligated again, then they were sacrificed, their hearts were removed promptly, and 0.5 mL of 1% evans blue was injected into heart chambers via aorta to distinguish the ischemic regions and the non-ischemic regions. After the heart atrium and right ventricle were cut-off, the heart was refrigerated at −20° C. for 30 min, then placed in a tailor-made slice groove, and cut along the long axis to form 2 mm slices. The slices were immersed in 1% TTC phosphoric acid buffer solution (pH7.4), and incubated at 37° C. for 30 min to distinguish risky regions and necrotic regions. Then the slices were fixed with 10% formaldehyde for 24 h to enhance staining color for contrast photography. After the above treatment, the myocardial tissue was divided into: normal myocardia in blue, ischemic myocardia in light red, and necrotic myocardion in gray. A computer image analysis software was used to calculate the percentage of the area of the infarct myocardial region (nec) based on the area of the risky myocardial region (aar, i.e., ischemic myocardia, including ischemic infarct region and ischemic non-infarct region) (nec/aar), and the percentage of the area of the infarct myocardial region based on the whole area of the myocardia (nec/lv) to indicate the degree of infarct, as well as the percentage of the area of the risky myocardia based on the area of the left ventricle (aar/lv).

CC1(C)C2CCC1(C)C(OC(=O)C(O)Cc1ccc(O)c(O)c1)C2 (stereo not drawn) [bornyl salvianate ester, bornyl β-(3,4-dihydroxylphenyl)-α-hydroxylpropionate ester]
Microcirculatory blood flow ([1]; 5 mg/kg ip, 5 min after ligation): 11.4 ± 5.4 mL
Microcirculatory blood flow ([1]; 5 mg/kg ip, 15 min after ligation): 12.4 ± 4.6 mL
Microcirculatory blood flow ([1]; 5 mg/kg ip, 30 min after ligation): 12.9 ± 5.1 mL
Microcirculatory blood flow ([1]; 5 mg/kg ip, 45 min after ligation): 16.1 ± 4.1 mL
Microcirculatory blood flow ([1]; 5 mg/kg ip, 60 min after ligation): 16.0 ± 6.9 mL
Microcirculatory blood flow ([1]; 15 mg/kg ip, 5 min after ligation): 9.4 ± 3.7 mL
Microcirculatory blood flow ([1]; 15 mg/kg ip, 15 min after ligation): 12.8 ± 5.6 mL
Microcirculatory blood flow ([1]; 15 mg/kg ip, 30 min after ligation): 20.7 ± 3.2 mL
Microcirculatory blood flow ([1]; 15 mg/kg ip, 45 min after ligation): 25.0 ± 5.2 mL
Microcirculatory blood flow ([1]; 15 mg/kg ip, 60 min after ligation): 24.4 ± 4.8 mL
cerebral microcirculatory blood flow (in words) ([1]; 15 mg/kg, 30 minutes after the administration): increased slightly
Microcirculatory blood flow ([1]; 35 mg/kg ip, 5 min after ligation): 10.8 ± 2.7 mL
Microcirculatory blood flow ([1]; 35 mg/kg ip, 15 min after ligation): 19.4 ± 5.1 mL
Microcirculatory blood flow ([1]; 35 mg/kg ip, 30 min after ligation): 32.7 ± 6.2 mL
Microcirculatory blood flow ([1]; 35 mg/kg ip, 45 min after ligation): 35.4 ± 8.2 mL
Microcirculatory blood flow ([1]; 35 mg/kg ip, 60 min after ligation): 35.2 ± 5.8 mL
cerebral microcirculatory blood flow (in words) ([1]; 35 mg/kg, 15 minutes after the administration): increased slightly
aar/lv ([2]; 5 mg/kg ip): 64.09 ± 18.10%
nec/aar ([2]; 5 mg/kg ip): 61.72 ± 14.65%
nec/lv ([2]; 5 mg/kg ip): 48.45 ± 17.11%
aar/lv ([2]; 15 mg/kg ip): 63.02 ± 15.98%
nec/aar ([2]; 15 mg/kg ip): 62.63 ± 13.82%
nec/lv ([2]; 15 mg/kg ip): 48.23 ± 15.34%
aar/lv ([2]; 35 mg/kg ip): 51.97 ± 13.04 %
nec/aar ([2]; 35 mg/kg ip): 50.01 ± 9.03 %
nec/lv ([2]; 35 mg/kg ip): 40.21 ± 12.65 %
decrease of aar/lv in comparison with the model control group ([2]; large dose group (35 mg/kg ip)): 22.5%
decrease of nec/aar in comparison with the model control group ([2]; large dose group (35 mg/kg ip)): 22%
decrease of nec/lv in comparison with the model control group ([2]; large dose group (35 mg/kg ip)): 20.4%
